# Test results as given in patent US20080057529A1, “Method for Identifying Histone Deacetylase Inhibitors” (priority 2003, published 2008).
# Columns and labels:
# Format in all cases: cell-based, human
# [1] = test system: HeLa cells; assay: Cell death in transiently transfected HeLa cells
# Protocol: (§1) The p21m-BLA reporter plasmid was tested in transient transfection experiments of HeLa cells to evaluate the responsiveness of the minimal p21 promoter and the Bla reporter system to known HDAC inhibitors. In the first two transfection experiments, HeLa cells were transfected with 1 or 2 μg of Bla reporter plasmid containing either p21 minimal promoter (p21m-BLA) or CMV promoter (CMV-BLA) and 0.1 μg of pCMV-Luc or pRSV-Luc control plasmids. Different DNA-FUGENE transfection reagent ratios were tested (FUGENE is available from Roche Applied Science, Indianapolis, Ind.). […] Data are summarized below in Tables 1 and 2.
# (§2) The percentage of β-lactamase-positive cells increased with time independent of the presence of HDAC inhibitors and was constantly higher with p21m-BLA than with pCMV-BLA.
# [2] = test system: CMV promoter; assay: Luc activity of co-transfected pCMV-Luc control plasmid in HeLa cells; conditions: for RLU norm mean / RLU/μg: Table 5; for RLU/μg: luciferase control plasmid not named
# [3] = test system: endogenous p21; assay: Induction of endogenous p21 in HeLa cells, immunoblot; conditions: 13 hour treatment, immunoblot densitometry, read-out: Endogenous p2 EC50
# Protocol: Induction of endogenous p21 and acetylation of core histones (inhibition of HDAC activity) was as follows. Dose-response experiments were performed in HeLa cells with different classes of known HDAC inhibitors. […] An α-tubulin-specific antibody (Sigma, St. Louis, Mo.; catalog number: T9026) was used as an internal standard. Quantitative data were obtained by densitometric analysis of X-ray films and were normalized for the internal standard values.
# [4] = test system: p21 minimal promoter; assay: Fluorometric β-lactamase activity assay in stable HeLa clone 1.17 (p21m-BLA)
# Protocol: All clones were screened for the presence of stably and functional integrated copies of the p21m-BLA reporter gene transcription cassette by performing a fluorometric β-lactamase activity assay after treatment with the HDAC inhibitor Apicidin at a concentration of 1 μM (saturating dose representing 100% of Bla gene activation, i.e., 100% of HDAC inhibition). A 100 μL aliquot of cells for each stable transformant in complete DMEM was plated into a well of a 96 well plate at about 36,000 cells per well for treatment with 1 μM Apicidin (saturating dose) and a 100 μL aliquot of cells was plated into a well of a 96 well plate at 24,000 cells per well for treatment with DMSO (vehicle control). […] After 4 hours, 25 μL of complete DMEM containing Apicidin at 5× final concentration or DMSO (5%) was added to each of the wells. The cells were then grown at 37° C., 5% CO2 for about 12 to 16 hours. Afterwards, the medium was removed and 100 μL of DMEM without serum and 25 μL of FRET labeled CCF2-AM Bla substrate diluted in the appropriate buffer according to the manufacturer recommendations were each added to the cells to give a final concentration of 1 μM CCF2-AM.
# [5] = test system: p21 minimal promoter; assay: Transient transfection of HeLa cells with p21m-BLA reporter plasmid, Bla staining (blue cells)
# Protocol: as §1, §2
# In light of the above, the lack of apparent Bla activation in the above transfection experiments might have been due to the high sensitivity of the method. Therefore, transient transfections in which an accurate titration of the reporter plasmid DNA were performed. The titration of the reporter plasmid included using amounts lower than was used above. […] The transient transfections were repeated and the result confirmed (Table 7).
# [6] = test system: p21 minimal promoter; assay: Transient transfection of HeLa cells with p21m-SEAP reporter plasmid, SEAP activity; conditions: Apicidin 1 μM, TSA 300 nM; for SEAP (10 min) / SEAP norm-bckg/RLU norm: Table 5
# Protocol: To determine whether the p21 minimal promoter was responsive to HDAC inhibitors, a reporter plasmid containing the secreted alkaline phosphatase gene (SEAP) operably linked to the p21 minimal promoter (−182 through +25), pcDNA3-21m-SEAP, was tested in transient transfection experiments of HeLa cells. […] All data summarized in Tables 4 through 7 were obtained by normalizing the total amount of transfected DNA to 2.1 μg using a promoterless plasmid.
# [7] = Table 2, 400 nM, 12 hours, 1 μg p21m-BLA + 3 μL F + CMV-luc
# [8] = Table 3, 2 μg p21m-BLA + 0.1 μg pCMV-Luc, 6 hr treatment, TSA 300 nM, Apicidin 1 μM
# [9] = Table 3, 2 μg p21m-BLA + 0.1 μg pCMV-Luc, 12 hr treatment, TSA 300 nM, Apicidin 1 μM
# [10] = Table 3, 2 μg p21m-BLA + 0.1 μg pCMV-Luc, 24 hr treatment, TSA 300 nM, Apicidin 1 μM
# [11] = Apicidin 1 μM, TSA 300 nM, P21m-SEAP 0 μg DNA
# [12] = Apicidin 1 μM, TSA 300 nM, P21m-SEAP 0.1 μg DNA
# [13] = Apicidin 1 μM, TSA 300 nM, P21m-SEAP 0.5 μg DNA
# [14] = Apicidin 1 μM, TSA 300 nM, P21m-SEAP 1 μg DNA
compound,measurement,setting,value
"CC(/C=C/C(=O)NO)=C\[C@@H](C)C(=O)c1ccc(N(C)C)cc1 [TSA, Trichostatin A]",cells dead after treatment,"[1]; 400 nM, 12 hours induction, transfected HeLa cells, both experiments",approximately 50%
same,"cell death at longer incubation times, compared with Apicidin","[1]; 12 and 24 hours, TSA 300 nM vs Apicidin 1 μM",higher fraction of cells died
same,Cell-death,"[1]; after 6 hours, TSA 300 nM, Apicidin 1 μM, transfected HeLa cells",not visible
same,RLU/mg,"[2]; Table 1, 400 nM, 12 hours, 2 μg CMV-BLA + 6 μL F, control plasmid not given",14934 RLU/mg
same,RLU/mg,"[2]; Table 1, 400 nM, 12 hours, 2 μg p21m-BLA + 6 μL F, control plasmid not given",50773.9 RLU/mg
same,RLU/mg,"[2]; Table 1, 400 nM, 12 hours, 2 μg p21m-BLA + 10 μL F, control plasmid not given",22499.2 RLU/mg
same,RLU/mg,"[2]; Table 2, 400 nM, 12 hours, 1 μg CMV-BLA + 3 μL F + CMV-luc",14928.8 RLU/mg
same,RLU/mg,[2]; [7],47709.8 RLU/mg
same,RLU/mg,[2]; [8],85379 RLU/mg
same,RLU/mg,[2]; [9],248656.9 RLU/mg
same,RLU/mg,[2]; [10],110180.6 RLU/mg
same,RLU/mg,"[2]; Table 3, 2 μg pCMV-BLA + 0.1 μg pCMV-Luc, 6 hr treatment, TSA 300 nM, Apicidin 1 μM",12579.8 RLU/mg
same,RLU/mg,"[2]; Table 3, 2 μg pCMV-BLA + 0.1 μg pCMV-Luc, 12 hr treatment, TSA 300 nM, Apicidin 1 μM",33592.3 RLU/mg
same,RLU/mg,"[2]; Table 3, 2 μg pCMV-BLA + 0.1 μg pCMV-Luc, 24 hr treatment, TSA 300 nM, Apicidin 1 μM",22233.7 RLU/mg
same,RLU norm mean,[2]; [11],0.97
same,RLU/μg,[2]; [11],"94,973.90 RLU/μg"
same,RLU norm mean,[2]; [12],0.97
same,RLU/μg,[2]; [12],"95,526.00 RLU/μg"
same,RLU/μg,"[2]; Apicidin 1 μM, TSA 300 nM, P21m-SEAP 0.2 μg DNA","116,091.50 RLU/μg"
same,RLU norm mean,[2]; [13],0.85
same,RLU/μg,[2]; [13],"83,237.58 RLU/μg"
same,RLU norm mean,[2]; [14],0.89
same,RLU/μg,[2]; [14],"87,194.70 RLU/μg"
same,RLU/μg,"[2]; Apicidin 1 μM, TSA 300 nM, P21m-SEAP 2 μg DNA","111,592.45 RLU/μg"
same,EC50,[3],0.19 µM
same,reversion of Bla induction after FACS sorting,"[4]; clone 1.17, 600 nM for 13 hr, then 7 days in culture, DMSO-treated samples",Complete reversion
same,reversibility of induction of BlaM transcription,"[4]; clone 1.17, 300 or 600 nM for 13 hours, 48 hours after removal",complete shut down of β-lactamase activity
same,EC50,"[4]; clone 1.17, about 13 hours treatment, means of 3 to 4 independent experiments, read-out: p21m-Bla EC50",0.09 µM
same,% Blue cells,"[5]; Table 1, 400 nM, 12 hours induction, 1 μg p21m-BLA + 3 μL F",1%
same,% Blue cells,"[5]; Table 1, 400 nM, 12 hours induction, 1 μg p21m-BLA + 5 μL F",<1%
same,% Blue cells,"[5]; Table 1, 400 nM, 12 hours induction, 2 μg p21m-BLA + 6 μL F",1%
same,% Blue cells,"[5]; Table 1, 400 nM, 12 hours induction, 2 μg p21m-BLA + 10 μL F",<1%
same,% Blue cells,"[5]; Table 2, 400 nM, 12 hours induction, 1 μg p21m-BLA + 3 μL F",5%
same,% Blue cells,"[5]; Table 2, 400 nM, 12 hours induction, 2 μg p21m-BLA + 6 μL F",5%
same,% Blue cells,[5]; [7],4%
same,% Blue cells,"[5]; Table 2, 400 nM, 12 hours, 1 μg p21m-BLA + 3 μL F + RSV-luc",5%
same,% Blue cells,"[5]; Table 2, 400 nM, 12 hours, 2 μg p21BLA + 6 μL F + CMV-luc",4%
same,% Blue cells,"[5]; Table 2, 400 nM, 12 hours, 2 μg p21m-BLA + 6 μL F + RSV-luc",4%
same,% Blue cells,[5]; [8],2-3%
same,% Blue cells,[5]; [9],10%
same,% Blue cells,[5]; [10],10%
same,induction of SEAP (maximum),[6]; p21m-SEAP promoter titration in HeLa,up to 26 fold
same,SEAP (10 min),[6]; P21m-SEAP 0 μg DNA (total DNA 2.1 μg),2313
same,SEAP norm-bckg/RLU norm,[6]; P21m-SEAP 0.1 μg DNA,"6,558.72"
same,SEAP (10 min),[6]; P21m-SEAP 0.1 μg DNA (total DNA 2.1 μg),4405
same,SEAP norm-bckg/RLU norm,[6]; P21m-SEAP 0.2 μg DNA,"11,855.92"
same,SEAP (10 min),[6]; P21m-SEAP 0.2 μg DNA (total DNA 2.1 μg),9328
same,SEAP norm-bckg/RLU norm,[6]; P21m-SEAP 0.5 μg DNA,"25,471.82"
same,SEAP (10 min),[6]; P21m-SEAP 0.5 μg DNA (total DNA 2.1 μg),15743
same,SEAP norm-bckg/RLU norm,[6]; P21m-SEAP 1 μg DNA,"108,713.07"
same,SEAP (10 min),[6]; P21m-SEAP 1 μg DNA (total DNA 2.1 μg),50626
same,SEAP norm-bckg/RLU norm,[6]; P21m-SEAP 2 μg DNA,"201,678.57"
same,SEAP (10 min),[6]; P21m-SEAP 2 μg DNA (total DNA 2.1 μg),109998
